According to patent US20040038884A1, “Treatment of tinitus” (priority 2003, published 2004):
Where no end group is shown, it is not given here.

What was measured:
outer hair cells (OHCs) = assay: Whole-cell patch-clamp recordings of inhibitory postsynaptic currents on outer hair cells; assay type: cell-based, Wistar rats; details: apamine 10 nM; OHCs held at −64 mV, high extracellular K+
[1] = tested on: alpha9/alpha10 heteromeric acetylcholine receptor; assay: Block of the acetylcholine receptor of the inner ear (stated finding, no method given)

block of the acetylcholine receptor [1] | Compound | inhibition of postsynaptic currents (IPSCs) (outer hair cells (OHCs))
 | apamine (CNCKAPETALCARRCQQH; not fully specified (C-terminus, bridges); cysteine pairing not given here; UniProt P01500 28-45, looked up) | complete inhibition
blocked efficiently | CC12CC3CC(C)(C1)CC(N)(C3)C2 [memantine, 3.5-dimethyl-1-adamantan-amine] | 
